Source: ChEMBL document CHEMBL4371080, “Multiple weak intercalation as a strategy for the inhibition of polymerases” (Bioorg Med Chem Lett, 2019)
Where a SMILES comes first, the peptide text is derived from it. Bridges are numbered along the chain shown (N, C = ends). [ ]: non-standard residue; d: D form. The star is where a group is joined. ξ: configuration not given here. Quinoxaline2carbonyl = O=C(c1cnc2ccccc2n1)*; ξDap = NCC(N)C(=O)O

What follows are compounds tested against Human immunodeficiency virus type 1 reverse transcriptase (Human immunodeficiency virus 1) (UniProt Q72547) (assay: Inhibition of HIV1 reverse transcriptase assessed as reduction in [3H]dTTP incorporation by measuring proportional residual activity ratio at 300 uM using poly(rA)/oligo(dT) as template/primer after 30 mins by scintillation counting method).

Row | Compound | Ratio
1 | NC(=O)C[C@@H](NC(=O)[C@@H](N)Cc1c[nH]c2ccccc12)C(=O)N[C@@H](Cc1c[nH]c2ccccc12)C(N)=O | 0.6
2 | NC(=O)[C@@H](Cc1c[nH]c2ccccc12)NC(=O)CNC(=O)[C@@H](N)Cc1c[nH]c2ccccc12 | 0.74
3 | NC(=O)C[C@H](NC(=O)[C@H](N)Cc1c[nH]c2ccccc12)C(=O)N[C@@H](Cc1c[nH]c2ccccc12)C(N)=O | 0.69
4 | NC(=O)[C@@H](Cc1c[nH]c2ccccc12)NC(=O)CCCNC(=O)[C@H](N)Cc1c[nH]c2ccccc12 | 0.36
5 | NC(=O)C[C@@H](NC(=O)[C@H](N)Cc1c[nH]c2ccccc12)C(=O)N[C@@H](Cc1c[nH]c2ccccc12)C(N)=O | 0.34
6 | NC(=O)[C@H](Cc1c[nH]c2ccccc12)NC(=O)[C@@H](N)Cc1c[nH]c2ccccc12 | 0.65
7 | NC(=O)[C@@H](Cc1c[nH]c2ccccc12)NC(=O)CCNC(=O)[C@@H](N)Cc1c[nH]c2ccccc12 | 0.46
8 | NC(=O)[C@@H](Cc1c[nH]c2ccccc12)NC(=O)[C@@H](N)Cc1c[nH]c2ccccc12 | 0.45
9 | NC(=O)C[C@@H](NC(=O)[C@H](N)Cc1c[nH]c2ccccc12)C(=O)N[C@H](Cc1c[nH]c2ccccc12)C(N)=O | 0.47
10 | NC(=O)[C@H](Cc1c[nH]c2ccccc12)NC(=O)[C@H](N)Cc1c[nH]c2ccccc12 | 0.61
11 | NC(=O)C[C@H](NC(=O)[C@@H](N)Cc1c[nH]c2ccccc12)C(=O)N[C@@H](Cc1c[nH]c2ccccc12)C(N)=O | 0.62
12 | NC(=O)C[C@@H](NC(=O)[C@@H](N)Cc1c[nH]c2ccccc12)C(=O)N[C@H](Cc1c[nH]c2ccccc12)C(N)=O | 0.35
13 | NC(=O)[C@H](Cc1c[nH]c2ccccc12)NC(=O)CNC(=O)[C@H](N)Cc1c[nH]c2ccccc12 | 0.63
14 | NC(=O)[C@@H](Cc1c[nH]c2ccccc12)NC(=O)[C@H](N)Cc1c[nH]c2ccccc12 | 0.7
15 | NC(=O)[C@@H](Cc1c[nH]c2ccccc12)NC(=O)CNC(=O)[C@H](N)Cc1c[nH]c2ccccc12 | 0.76
16 | NC(=O)C[C@H](NC(=O)[C@H](N)Cc1c[nH]c2ccccc12)C(=O)N[C@H](Cc1c[nH]c2ccccc12)C(N)=O | 0.69
17 | NC(=O)[C@H](Cc1c[nH]c2ccccc12)NC(=O)CCCNC(=O)[C@H](N)Cc1c[nH]c2ccccc12 | 0.43
18 | NC(=O)C[C@H](NC(=O)[C@@H](N)Cc1c[nH]c2ccccc12)C(=O)N[C@H](Cc1c[nH]c2ccccc12)C(N)=O | 0.44
19 | NC(=O)[C@H](Cc1c[nH]c2ccccc12)NC(=O)CNC(=O)[C@@H](N)Cc1c[nH]c2ccccc12 | 0.4

The compounds below were run against Human immunodeficiency virus type 1 reverse transcriptase (Human immunodeficiency virus 1, UniProt Q72547) (assay: Inhibition of HIV1 reverse transcriptase assessed as reduction in [3H]dTTP incorporation using poly(rA)/oligo(dT) as template/primer after 30 mins by scintillation counting method).

Row | Compound | IC50 [µM]
20 | O=C(O)c1cnc2ccccc2c1 | 2400
21 | COc1cc(NC(C)CCCN)c2ncccc2c1 (configuration not stated) [PRIMAQUINE PHOSPHATE] | 100
22 | O=C(O)c1ccnc2ccccc12 | 9600

These compounds were tested against Human immunodeficiency virus type 1 reverse transcriptase (Human immunodeficiency virus 1) (UniProt Q72547) (assay: Inhibition of HIV1 reverse transcriptase assessed as reduction in [3H]dTTP incorporation by measuring proportional residual activity ratio at 20 uM using poly(rA)/oligo(dT) as template/primer after 30 mins by scintillation counting method relative to control).

Row | Compound | Ratio
23 | NCC1NC(=O)C[C@@H](C(N)=O)NC(=O)CNC(=O)C(CNC(=O)c2cnc3ccccc3n2)NC(=O)CNC(=O)C(CNC(=O)c2cnc3ccccc3n2)NC(=O)CNC1=O (some centres not stated) ([ξDap]G[ξDap](Quinoxaline2carbonyl)G[ξDap](Quinoxaline2carbonyl)GD-NH2; lactam N-7) | 0.09
24 | NCC1NC(=O)C[C@@H](C(N)=O)NC(=O)CNC(=O)CNC(=O)C(CNC(=O)c2cnc3ccccc3n2)NC(=O)C(CNC(=O)c2cnc3ccccc3n2)NC(=O)CNC1=O (some centres not stated) ([ξDap]G[ξDap](Quinoxaline2carbonyl)[ξDap](Quinoxaline2carbonyl)GGD-NH2; lactam N-7) | 0.38
25 | NCC1NC(=O)C[C@@H](C(N)=O)NC(=O)CNC(=O)C(CNC(=O)c2cnc3ccccc3n2)NC(=O)C(CNC(=O)c2cnc3ccccc3n2)NC(=O)CNC(=O)C(CNC(=O)c2cnc3ccccc3n2)NC1=O (some centres not stated) ([ξDap][ξDap](Quinoxaline2carbonyl)G[ξDap](Quinoxaline2carbonyl)[ξDap](Quinoxaline2carbonyl)GD-NH2; lactam N-7) | 0.09
26 | NCC1NC(=O)C[C@@H](C(N)=O)NC(=O)C(CNC(=O)c2cnc3ccccc3n2)NC(=O)C(CNC(=O)c2cnc3ccccc3n2)NC(=O)CNC(=O)C(CNC(=O)c2cnc3ccccc3n2)NC(=O)CNC1=O (stereo partly drawn) ([ξDap]G[ξDap](Quinoxaline2carbonyl)G[ξDap](Quinoxaline2carbonyl)[ξDap](Quinoxaline2carbonyl)D-NH2; lactam N-7) | 0.15
27 | NCC1NC(=O)C[C@@H](C(N)=O)NC(=O)C(CNC(=O)c2cnc3ccccc3n2)NC(=O)C(CNC(=O)c2cnc3ccccc3n2)NC(=O)C(CNC(=O)c2cnc3ccccc3n2)NC(=O)CNC(=O)CNC1=O (stereo partly drawn) ([ξDap]GG[ξDap](Quinoxaline2carbonyl)[ξDap](Quinoxaline2carbonyl)[ξDap](Quinoxaline2carbonyl)D-NH2; lactam N-7) | 0.16
28 | NCC1NC(=O)C[C@@H](C(N)=O)NC(=O)CNC(=O)CNC(=O)C(CNC(=O)c2cnc3ccccc3n2)NC(=O)CNC(=O)CNC1=O (some centres not stated) ([ξDap]GG[ξDap](Quinoxaline2carbonyl)GGD-NH2; lactam N-7) | 0.66
29 | NCC1NC(=O)C[C@@H](C(N)=O)NC(=O)CNC(=O)C(CNC(=O)c2cnc3ccccc3n2)NC(=O)C(CNC(=O)c2cnc3ccccc3n2)NC(=O)CNC(=O)CNC1=O (some centres not stated) ([ξDap]GG[ξDap](Quinoxaline2carbonyl)[ξDap](Quinoxaline2carbonyl)GD-NH2; lactam N-7) | 0.57
30 | NCC1NC(=O)C[C@@H](C(N)=O)NC(=O)CNC(=O)CNC(=O)C(CNC(=O)c2cnc3ccccc3n2)NC(=O)C(CNC(=O)c2cnc3ccccc3n2)NC(=O)C(CNC(=O)c2cnc3ccccc3n2)NC1=O (some centres not stated) ([ξDap][ξDap](Quinoxaline2carbonyl)[ξDap](Quinoxaline2carbonyl)[ξDap](Quinoxaline2carbonyl)GGD-NH2; lactam N-7) | 0.04
31 | NCC1NC(=O)C[C@@H](C(N)=O)NC(=O)C(CNC(=O)c2cnc3ccccc3n2)NC(=O)CNC(=O)C(CNC(=O)c2cnc3ccccc3n2)NC(=O)CNC(=O)CNC1=O (stereo partly drawn) ([ξDap]GG[ξDap](Quinoxaline2carbonyl)G[ξDap](Quinoxaline2carbonyl)D-NH2; lactam N-7) | 0.18
32 | NCC1NC(=O)C[C@@H](C(N)=O)NC(=O)C(CNC(=O)c2cnc3ccccc3n2)NC(=O)CNC(=O)CNC(=O)C(CNC(=O)c2cnc3ccccc3n2)NC(=O)CNC1=O (stereo partly drawn) ([ξDap]G[ξDap](Quinoxaline2carbonyl)GG[ξDap](Quinoxaline2carbonyl)D-NH2; lactam N-7) | 0.13
33 | NCC1NC(=O)C[C@@H](C(N)=O)NC(=O)C(CNC(=O)c2cnc3ccccc3n2)NC(=O)CNC(=O)CNC(=O)C(CNC(=O)c2cnc3ccccc3n2)NC(=O)C(CNC(=O)c2cnc3ccccc3n2)NC1=O (stereo partly drawn) ([ξDap][ξDap](Quinoxaline2carbonyl)[ξDap](Quinoxaline2carbonyl)GG[ξDap](Quinoxaline2carbonyl)D-NH2; lactam N-7) | 0.06
34 | NCC1NC(=O)C[C@@H](C(N)=O)NC(=O)CNC(=O)C(CNC(=O)c2cnc3ccccc3n2)NC(=O)C(CNC(=O)c2cnc3ccccc3n2)NC(=O)C(CNC(=O)c2cnc3ccccc3n2)NC(=O)CNC1=O (some centres not stated) ([ξDap]G[ξDap](Quinoxaline2carbonyl)[ξDap](Quinoxaline2carbonyl)[ξDap](Quinoxaline2carbonyl)GD-NH2; lactam N-7) | 0.08
35 | NCC1NC(=O)C[C@@H](C(N)=O)NC(=O)CNC(=O)CNC(=O)CNC(=O)C(CNC(=O)c2cnc3ccccc3n2)NC(=O)C(CNC(=O)c2cnc3ccccc3n2)NC1=O (some centres not stated) ([ξDap][ξDap](Quinoxaline2carbonyl)[ξDap](Quinoxaline2carbonyl)GGGD-NH2; lactam N-7) | 0.3
36 | NCC1NC(=O)C[C@@H](C(N)=O)NC(=O)C(CNC(=O)c2cnc3ccccc3n2)NC(=O)CNC(=O)C(CNC(=O)c2cnc3ccccc3n2)NC(=O)CNC(=O)C(CNC(=O)c2cnc3ccccc3n2)NC1=O (stereo partly drawn) ([ξDap][ξDap](Quinoxaline2carbonyl)G[ξDap](Quinoxaline2carbonyl)G[ξDap](Quinoxaline2carbonyl)D-NH2; lactam N-7) | 0.18
37 | NCC1NC(=O)C[C@@H](C(N)=O)NC(=O)CNC(=O)CNC(=O)C(CNC(=O)c2cnc3ccccc3n2)NC(=O)CNC(=O)C(CNC(=O)c2cnc3ccccc3n2)NC1=O (some centres not stated) ([ξDap][ξDap](Quinoxaline2carbonyl)G[ξDap](Quinoxaline2carbonyl)GGD-NH2; lactam N-7) | 0.11
38 | NCC1NC(=O)C[C@@H](C(N)=O)NC(=O)CNC(=O)C(CNC(=O)c2cnc3ccccc3n2)NC(=O)CNC(=O)CNC(=O)C(CNC(=O)c2cnc3ccccc3n2)NC1=O (some centres not stated) ([ξDap][ξDap](Quinoxaline2carbonyl)GG[ξDap](Quinoxaline2carbonyl)GD-NH2; lactam N-7) | 0.02
39 | NCC1NC(=O)C[C@@H](C(N)=O)NC(=O)C(CNC(=O)c2cnc3ccccc3n2)NC(=O)CNC(=O)C(CNC(=O)c2cnc3ccccc3n2)NC(=O)C(CNC(=O)c2cnc3ccccc3n2)NC(=O)CNC1=O (stereo partly drawn) ([ξDap]G[ξDap](Quinoxaline2carbonyl)[ξDap](Quinoxaline2carbonyl)G[ξDap](Quinoxaline2carbonyl)D-NH2; lactam N-7) | 0.14
40 | NCC1NC(=O)C[C@@H](C(N)=O)NC(=O)C(CNC(=O)c2cnc3ccccc3n2)NC(=O)C(CNC(=O)c2cnc3ccccc3n2)NC(=O)CNC(=O)CNC(=O)C(CNC(=O)c2cnc3ccccc3n2)NC1=O (stereo partly drawn) ([ξDap][ξDap](Quinoxaline2carbonyl)GG[ξDap](Quinoxaline2carbonyl)[ξDap](Quinoxaline2carbonyl)D-NH2; lactam N-7) | 0.13
41 | NCC1NC(=O)C[C@@H](C(N)=O)NC(=O)C(CNC(=O)c2cnc3ccccc3n2)NC(=O)C(CNC(=O)c2cnc3ccccc3n2)NC(=O)CNC(=O)CNC(=O)CNC1=O (stereo partly drawn) ([ξDap]GGG[ξDap](Quinoxaline2carbonyl)[ξDap](Quinoxaline2carbonyl)D-NH2; lactam N-7) | 0.71
42 | NCC1NC(=O)C[C@@H](C(N)=O)NC(=O)CNC(=O)C(CNC(=O)c2cnc3ccccc3n2)NC(=O)CNC(=O)C(CNC(=O)c2cnc3ccccc3n2)NC(=O)C(CNC(=O)c2cnc3ccccc3n2)NC1=O (some centres not stated) ([ξDap][ξDap](Quinoxaline2carbonyl)[ξDap](Quinoxaline2carbonyl)G[ξDap](Quinoxaline2carbonyl)GD-NH2; lactam N-7) | 0.03
